In patent US11174242B2, “Heteroaryl compounds and their use” (Minoryx Therapeutics S.L., priority 2016, dated 2021):
Numbering of substitutions follows the chain as printed.

How the values were obtained:
[1] = target: T1, β-glucocerebrosidase, p.L444P mutation (GM08760A fibroblasts) (Homo sapiens, UniProt P04062, L483P); assay: Enhancement of β-glucocerebrosidase activity measured in Gaucher disease fibroblasts (L444P); format: cell-based; conditions: increase in enzyme activity vs non-treated cells, GBA fibroblasts bearing L444P
T1 construct: host or cells: human Gaucher patient fibroblasts GM08760A, homozygous L444P
T1 sequence (P04062 40-536 L483P): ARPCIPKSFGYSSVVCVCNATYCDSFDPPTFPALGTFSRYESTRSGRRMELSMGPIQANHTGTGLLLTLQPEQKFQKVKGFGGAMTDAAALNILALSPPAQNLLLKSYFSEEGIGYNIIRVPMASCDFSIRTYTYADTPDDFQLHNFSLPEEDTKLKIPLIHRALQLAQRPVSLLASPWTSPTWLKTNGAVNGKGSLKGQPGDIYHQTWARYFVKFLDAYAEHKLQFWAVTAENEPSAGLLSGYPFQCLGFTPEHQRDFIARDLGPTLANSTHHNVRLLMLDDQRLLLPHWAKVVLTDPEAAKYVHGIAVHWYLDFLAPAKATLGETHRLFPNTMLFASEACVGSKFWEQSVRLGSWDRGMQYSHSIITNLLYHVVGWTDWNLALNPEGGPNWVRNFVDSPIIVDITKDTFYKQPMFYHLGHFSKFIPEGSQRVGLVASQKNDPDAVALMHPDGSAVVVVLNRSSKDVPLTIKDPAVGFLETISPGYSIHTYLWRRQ
Procedure, shortened: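 GM08760A fibroblasts (homozygous p.L444P), 5×10^3 cells/well, treated with compound for 4 days at 37° C. Intact cells then incubated with 4-MU-β-D-glucopyranoside in 0.1 M acetate buffer pH=4 for 1 hour at 37° C.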

[2] = target: T2, β-glucocerebrosidase Wild Type (WT) (Homo sapiens, UniProt P04062); assay: β-glucocerebrosidase activity enhancement, Wild Type (WT); format: cell-based; conditions: increase in enzyme activity vs non-treated cells; for Activity WT: commercially available compounds
T2 construct: endogenous in cells
T2 sequence (P04062 40-536): T1 sequence (P04062 40-536 L483P) with P444L

[3] = commercially available compounds, 6-50 μM, 4 days
[4] = concentrations between 6 and 50 μM, 4 days incubation

SMILES	Activity L444P [1, 3]	Activity WT [2]	Activity L444P [1, 4]	Activity Wild Type (WT) [2]
Cc1ccc(Nc2nc(N)nc(CN3CCN(Cc4ccc5c(c4)OCO5)CC3)n2)cc1 [6-((4-(benzo[d][1,3]dioxo1-5-ylmethyl)piperazin-1-yl)methyl)-N2-(p-tolyl)-1,3,5-triazine-2,4-diamine]	C (Increase in comparison with non-treated of 1.2-1.7 fold is shown as C)	B (Increase in comparison with non-treated of >1.7-2.0 fold is shown as B)	–	–
CN(Cc1ccccc1)Cc1cc(Nc2ccc3ccncc3c2)nc(N)n1 [Example 30, 6-((Benzyl(methyl)amino)methyl)-N^4-(isoquinolin-7-yl)pyrimidine-2,4-diamine]	–	–	A (Increase in comparison with non-treated of >2.0 fold is shown as A)	B (Increase in comparison with non-treated of >1.7-2.0 fold is shown as B)
CN(Cc1ccccc1)Cc1cc(Nc2cccc3c2OCO3)nc(N)n1 [Example 43, N^4-(Benzo[d][1,3]dioxol-4-yl)-6-((benzyl(methyl)amino)methyl)pyrimidine-2,4-diamine]	–	–	C (Increase in comparison with non-treated of 1.2-1.7 fold is shown as C)	C (Increase in comparison with non-treated of 1.2-1.7 fold is shown as C)
CCc1ccc(CN(C)Cc2nc(N)nc(Nc3ccc(C)cc3)n2)cc1 [6-(((4-ethylbenzyl)(methyl)amino)methyl)-N2-(p-tolyl)-1,3,5-triazine-2,4-diamine]	C (Increase in comparison with non-treated of 1.2-1.7 fold is shown as C)	B (Increase in comparison with non-treated of >1.7-2.0 fold is shown as B)	–	–
COc1cccc(Nc2nc(N)nc(CN(C)c3ccccc3)n2)c1 [Example 3]	–	–	C (Increase in comparison with non-treated of 1.2-1.7 fold is shown as C)	B (Increase in comparison with non-treated of >1.7-2.0 fold is shown as B)
Nc1nc(CN2Cc3ccccc3C2)nc(Nc2ccc(F)cc2)n1 [N2-(4-fluorophenyl)-6-(isoindolin-2-ylmethyl)-1,3,5-triazine-2,4-diamine]	B (Increase in comparison with non-treated of >1.7-2.0 fold is shown as B)	C (Increase in comparison with non-treated of 1.2-1.7 fold is shown as C)	–	–
